Laboratory results reported in article PMC8219945 (Bioorganic Chemistry, 2021).

These compounds were tested on SARS-CoV-2 (assay: Antiviral IC50 determination). Conditions: not given.
Format: cell-based, SARS-CoV-2 (hCoV-19/Egypt/NRC-03/2020)

Row | Structure (SMILES) | SI (selectivity index/therapeutical index): CC50/IC50
1 | CCN(CCO)CCCC(C)Nc1ccnc2cc(Cl)ccc12 (centres unmarked) [HCQ, hydroxychloroquine, reference compound] | 10.85

Same assay, conditions: CC50 VERO-E6 / IC50 SARS-CoV-2

Row | Structure (SMILES) | SI (selectivity index/therapeutical index): CC50/IC50
2 | Cc1ccc(-n2cc(COc3cc(C(F)(F)F)nc4ccccc34)nn2)cc1 [Compound 10b, 4-((1-(p-Tolyl)-1H-1,2,3-triazol-4-yl)methoxy)-2-(trifluoromethyl)quinoline] | 0.49
3 | FC(F)(F)c1cc(OCc2cn(-c3ccccc3Cl)nn2)c2ccccc2n1 [Compound 10d, 4-((1-(2-Chlorophenyl)-1H-1,2,3-triazol-4-yl)methoxy)-2-(trifluoromethyl)quinoline] | 2.85
4 | COc1ccc(-n2cc(COc3cc(C(F)(F)F)nc4ccccc34)nn2)cc1 [Compound 10c, 4-((1-(4-Methoxyphenyl)-1H-1,2,3-triazol-4-yl)methoxy)-2-(trifluoromethyl)quinoline] | 0.03
5 | COc1ccc2nc(C(F)(F)F)cc(OCc3cn(-c4ccc(F)cc4)nn3)c2c1 [Compound 10k, 4-((1-(4-Fluorophenyl)-1H-1,2,3-triazol-4-yl)methoxy)-6-methoxy-2-(trifluoromethyl)quinoline] | 1.34
6 | Cc1ccc(-n2cc(COc3cc(C(F)(F)F)nc4ccc(F)cc34)nn2)cc1 [Compound 10f, 6-Fluoro-4-((1-(p-tolyl)-1H-1,2,3-triazol-4-yl)methoxy)-2-(trifluoromethyl)quinoline] | 1.71
7 | Cc1ccc2nc(C(F)(F)F)cc(OCc3cn(-c4ccccc4Cl)nn3)c2c1 [Compound 10i, 4-((1-(2-Chlorophenyl)-1H-1,2,3-triazol-4-yl)methoxy)-6-methyl-2-(trifluoromethyl)quinoline] | 4.51
8 | COc1ccccc1-n1cc(COc2cc(C(F)(F)F)nc3ccc(F)cc23)nn1 [Compound 10h, 6-Fluoro-4-((1-(2-methoxyphenyl)-1H-1,2,3-triazol-4-yl)methoxy)-2-(trifluoromethyl)quinoline] | 0.76
9 | COc1ccccc1-n1cc(Cn2c(C(F)(F)F)cc(=O)c3cc(C)ccc32)nn1 [Compound 11c, 1-((1-(2-Methoxyphenyl)-1H-1,2,3-triazol-4-yl)methyl)-6-methyl-2-(trifluoromethyl)quinolin-4(1H)-one] | 3.15
10 | COc1ccc(-n2cc(Cn3c(C(F)(F)F)cc(=O)c4ccccc43)nn2)cc1 [Compound 11a, 1-((1-(4-Methoxyphenyl)-1H-1,2,3-triazol-4-yl)methyl)-2-(trifluoromethyl)quinolin-4(1H)-one] | 3.69
11 | COc1ccccc1-n1cc(COc2cc(C(F)(F)F)nc3ccccc23)nn1 [Compound 10e, 4-((1-(2-Methoxyphenyl)-1H-1,2,3-triazol-4-yl)methoxy)-2-(trifluoromethyl)quinoline] | 0.03
12 | Fc1ccc(-n2cc(COc3cc(C(F)(F)F)nc4ccccc34)nn2)cc1 [Compound 10a, 4-((1-(4-Fluorophenyl)-1H-1,2,3-triazol-4-yl)methoxy)-2-(trifluoromethyl)quinoline] | 5.04
13 | Fc1ccc2nc(C(F)(F)F)cc(OCc3cn(-c4ccccc4Cl)nn3)c2c1 [Compound 10g, 4-((1-(2-Chlorophenyl)-1H-1,2,3-triazol-4-yl)methoxy)-6-fluoro-2-(trifluoromethyl)quinoline] | 26.42
14 | COc1ccc2nc(C(F)(F)F)cc(OCc3cn(-c4ccc(C)cc4)nn3)c2c1 [Compound 10l, 6-Methoxy-4-((1-(p-tolyl)-1H-1,2,3-triazol-4-yl)methoxy)-2-(trifluoromethyl)quinoline] | 0.65
